# Reference: patent US6444878B1, “Method of plant selection using glucosamine-6-phosphate deaminase” (Danisco A/S, priority 1997, dated 2002)
# Structures can show the parent of a compound that is named as a salt. Where two headings read alike, the source gives them in different places.
# How the values were obtained:
# natural plant cells = settings: formed from milli-molar amounts of glucosamine; cited from earlier work
# [1] = system: glucosamine-6-phosphate deaminase encoded by nagB; test: Conversion of GA6P to F6P by glucosamine-6-phosphate deaminase, allosteric effect; assay type: biochemical, E. coli; settings: FIG. 3
# Excerpt: One aspect of the selection method of the present invention provides an additional advantageous feature. […] This surprising finding is in accordance with studies done with E. coli (Calcagno, M, et al (1984) Biochim Biophys Acta 787: 165-173). Thus, should any glucosamine be metabolised to NAGA and in turn eventually to NAG6P then that NAG6P would ensure conversion of GA6P to F6P by the enzyme glucosamine-6-phosphate deaminase or at least aid the conversion step. This is an advantageous feature of the highly preferred selection method of the present invention.
# [2] = system: guar cotyledonary explants transformed with nagB; test: Selection of transgenic guar shoots on glucosamine selection medium, GUS histochemical assay; assay type: cell-based, Cyamopsis tetragonoloba
# Procedure: Transformation of guar cotyledonary explants was performed according to Joersbo and Okkels (PCT/DK95/00221) using Agrobacterium tumefaciens LBA4404 harbouring the plasmid shown in FIG. 10. Selection of transgenic shoots was accomplished using the above-mentioned selection medium with various concentrations of glucosamine, sucrose and Garnborg B5 salts. After four weeks the shoots were harvested and all explants were transferred to fresh selection medium (same composition) and after another four weeks of selection the last shoots were harvested. After harvest, the shoots were analysed for β-glucuronidase (GUS) activity using the histochemical assay (Jefferson et al, 1987, EMBO J 6: 3901-3907).
# [3] = system: Solanum tuberosum cv Saturna explants; assay type: cell-based; settings: for Number of transformed areas per explant / Number of transgenic shoots / Transformation frequency (number transgenic shoots/started explants) / Transformation frequency (%) (Number transgenic shoots/started explants): sucrose 7.5 g/l
# Procedure: The disarmed Agrobacterium tumefaciens strain LBA 4404, containing the helper vir plasmid pRAL4404 (Hoekema et al, 1983 Nature 303 pp 179-180), was cultured on YMB agar (K2HPO4.3H2O 660 mg l^−1, MgSO4 200 mg l^−1, NaCl 100 mg l^−1, mannitol 10 g l^−1, yeast extract 400 mg l^−1, 0.8% w/v agar, pH 7.0) containing 100 mg l^−1 rifampicin and 500 mg l^−1 streptomycin sulphate. Transformation with pVICTOR IV GNG E35S nagB IV2 or pVICTOR IV GNG rbc nagB IV2 or pVICTOR IV GNG E35 S nagB was accomplished using the freeze-thaw method of Holters et al (1978 Mol Gen Genet 163 181-187) and transformants were selected on YMB agar containing 100 mg l^−1 rifampicin and 500 mg l^−1 streptomycin, and 50 mg l^−1 gentamycin sulphate. Transformation with a control construct lacking the nagB gene was performed in the same manner.
# Shoot cultures of Solanum tuberosum cv Saturna were maintained on LS agar containing Murashige Skoog basal salts (Sigma M6899) (Murashige and Skoog, 1965, Physiol Plant 15 473-497) with 2 μM silver thiosulphate, and nutrients and vitamins as described by Linsmaier and Skoog (1965 Physiol Plant 18 100-127). Cultures were maintained at 25° C. with a 16 h daily photoperiod. After approximately 40 days, subculturing was performed during and the shoots cut into mononodal segments of approximately 8 mm length.
# Shoot cultures of approximately 40 days maturity (5-6 cm height) were cut into 8 mm internodal segments and/or leaves were cut off and wounded by making 24 small cuts over the midrib of the leaf. These were then placed into liquid LS-medium containing Agrobacterium tumefaciens transformed with pVICTOR IV GNG E35 S nagB IV2 or pVICTOR IV GNG rbc nagB IV2 or pVICTOR IV GNG E35S nagB (A660=0.5, pathlength 1 cm). Following incubation at room temperature for 30 minutes, the segments were dried by blotting on to sterile filter paper and transferred to LS agar (0.8% w/v containing 2 mg l^−1 2,4-D and 500 μg l^−1 trans-zeatin. The explants were covered with filter paper, moistened with LS medium, and covered with a cloth for three days at 25° C. Following this treatment, the segments can be washed with liquid LS medium containing 800 mg l^−1 carbenicillin, and then transferred on to LS agar (0.8% w/v) containing 1 mg l^−1 trans-zeatin, […] gibberellic acid (GA3), with sucrose (eg 7.5 g l^−1). This agar can optionally contain glucosamine (eg 2.5 g l^−1). The segments were sub-cultured to fresh substrate each […]. In 3 to 4 weeks, shoots develop from the segments and the formation of new shoots continued for 3-4 months.
# The transgenic plants may be verified by performing a GUS assay on the cointroduced β-glucuronidase gene according to Hodal, L. et al. (Pl. Sci. (1992), 87: 115-122).
# [4] = system: non-transgenic guar cotyledons; assay type: cell-based; settings: glucosamine 3.0 g/l
# Procedure: In order to establish the toxicity of glucosamine to guar explants, a dose-response curve with glucosamine concentrations ranging from 0 to 5.0 g/l was made using non-transgenic guar cotyledons as explants. The effect on shoot formation on the explants was used to determine the toxicity of glucosamine (FIG. 20).
# The guar explants were obtained as follows. Guar seeds were sterilized in a 2.5% sodium hypochlorite solution at pH 7.0 added two drops of Tween 80 pr 100 ml solution. The seeds were stirred for 25 minutes in this solution and then washed five times with sterile water. Seeds were sown on germination medium (4.43 g/l MSMO (Sigma M6899), 20 g/l sucrose, 8.0 g/l agar, pH adjusted to 5.8 with KOH) and placed at 25° C. for 11-13 days at a 12 h/12 h day/night regime.
# The cotyledons including about 2 mm of hypocotyl were excised from the seedlings and were used as explants for this experiment as well as for transformation experiments. The cotyledons were placed on selection medium containing various concentrations of glucosamine.
# 0-5 g/l D-glucosamine, HCl (according to the experiment)
# After three weeks, the percentage of explants forming shoots on the various glucosamine containing media were determined and the results are given in FIG. 20.
# In order to be able to find appropriate selection conditions, some factors affecting the toxicity of glucosamine were studied. Initially, sucrose was tested at various concentrations (5-40 g/l) in the selection medium. […] It is expected that other saccharides such glucose, fructose, maltose, mannose etc may also affect the effect of glucosamine.
# Next, the effect of the concentration of the Gamborg B5 salts in the selection medium was tested in the presence of glucosamine (3.0 g/l). We investigated the use of these salts with a view to decreasing the carbon content of the medium.
# [5] = second table, glucosamine 1 g/l
# [6] = second table, glucosamine 2.5 g/l
# [7] = second table, glucosamine 5 g/l
# [8] = second table, glucosamine 7.5 g/l
# [9] = second table, glucosamine 10 g/l
# [10] = glucosamine 2 g/l, NH4/NO3 1298 g/l
# [11] = glucosamine 2.5 g/l, NH4/NO3 1189 g/l
# [12] = glucosamine 3 g/l, NH4/NO3 1093 g/l
structure (smiles),measurement,setting,value
"N[C@H]1C(O)O[C@H](COP(=O)(O)O)[C@@H](O)[C@@H]1O (stereo partly drawn) [GA6P, glucosamine-6-phosphate]",Toxicity to natural plant cells,natural plant cells,toxic to natural plant cells
"CC(=O)N[C@H]1C(O)O[C@H](COP(=O)(O)O)[C@@H](O)[C@@H]1O (stereo partly drawn) [NAG6P, N-acetyl glucosamine 6-phosphate]",Effect on the conversion of GA6P to F6P by glucosamine-6-phosphate deaminase,[1],positive effect (an allosteric effect)
"N[C@H]1C(O)O[C@H](CO)[C@@H](O)[C@@H]1O (stereo partly drawn) [glucosamine, D-glucosamine, HCl]",No of GUS-positive shoots,"[2]; sucrose 10 g/l, glucosamine 2.5 g/l, B5-salts 3.2 g/l",2
same,No of GUS-positive shoots,"[2]; sucrose 20 g/l, glucosamine 2.5 g/l, B5-salts 2.4 g/l",1
same,No of GUS-positive shoots,"[2]; sucrose 20 g/l, glucosamine 3.0 g/l, B5-salts 2.4 g/l",1
same,Effect of NH4NO3 content on toxicity of glucosamine,[3],lowering the content of NH4NO3 makes the glucosamine less toxic
same,Number of transformed areas per explant,[3]; [5],3.8
same,Number of transgenic shoots,[3]; [5],1
same,Transformation frequency (number transgenic shoots/started explants),[3]; [5],2
same,Number of transformed areas per explant,[3]; [6],0
same,Number of transgenic shoots,[3]; [6],0
same,Transformation frequency (number transgenic shoots/started explants),[3]; [6],0
same,Number of transformed areas per explant,[3]; [7],0
same,Number of transgenic shoots,[3]; [7],0
same,Transformation frequency (number transgenic shoots/started explants),[3]; [7],0
same,Number of transformed areas per explant,[3]; [8],0
same,Number of transgenic shoots,[3]; [8],0
same,Transformation frequency (number transgenic shoots/started explants),[3]; [8],0
same,Number of transformed areas per explant,[3]; [9],0
same,Number of transgenic shoots,[3]; [9],0
same,Transformation frequency (number transgenic shoots/started explants),[3]; [9],0
same,Number of transformed areas per explant,[3]; glucosamine 2 g/l,0
same,Transformation frequency (%) (Number transgenic shoots/started explants),[3]; glucosamine 2 g/l,0%
same,Number of transformed areas per explant,[3]; [10],0.025
same,Number of transgenic shoots,[3]; [10],0
same,Transformation frequency (%) (Number transgenic shoots/started explants),[3]; [10],0%
same,Number of transgenic shoots,"[3]; glucosamine 2 g/l, NH4/NO3 1650 g/l",0
same,Number of transformed areas per explant,[3]; glucosamine 2.5 g/l,0
same,Transformation frequency (%) (Number transgenic shoots/started explants),[3]; glucosamine 2.5 g/l,0%
same,Number of transformed areas per explant,[3]; [11],0
same,Number of transgenic shoots,[3]; [11],0
same,Transformation frequency (%) (Number transgenic shoots/started explants),[3]; [11],0%
same,Number of transgenic shoots,"[3]; glucosamine 2.5 g/l, NH4/NO3 1650 g/l",0
same,Number of transformed areas per explant,[3]; glucosamine 3 g/l,0
same,Transformation frequency (%) (Number transgenic shoots/started explants),[3]; glucosamine 3 g/l,0%
same,Number of transformed areas per explant,[3]; [12],0
same,Number of transgenic shoots,[3]; [12],0
same,Transformation frequency (%) (Number transgenic shoots/started explants),[3]; [12],0%
same,Number of transgenic shoots,"[3]; glucosamine 3 g/l, NH4/NO3 1650 g/l",0
same,Shoot formation on guar explants (%),[4]; Gamborg B5 salts in selection medium 1.6 g/l,6.2%
same,Shoot formation on guar explants (%),[4]; Gamborg B5 salts in selection medium 2.4 g/l,9.1%
same,Shoot formation on guar explants (%),[4]; Gamborg B5 salts in selection medium 3.2 g/l,17.4%
